{"source": "paper PMC5522529", "about": "“Mechanisms of Paradoxical Activation of AMPK by the Kinase Inhibitors SU6656 and Sorafenib” (Cell Chemical Biology, 2017)", "key": {"[1]": {"biological_target": "α2 kinase domain (α2-KD, residues 1–310) (Homo sapiens, UniProt P54646)", "sequence (P54646 1-310)": "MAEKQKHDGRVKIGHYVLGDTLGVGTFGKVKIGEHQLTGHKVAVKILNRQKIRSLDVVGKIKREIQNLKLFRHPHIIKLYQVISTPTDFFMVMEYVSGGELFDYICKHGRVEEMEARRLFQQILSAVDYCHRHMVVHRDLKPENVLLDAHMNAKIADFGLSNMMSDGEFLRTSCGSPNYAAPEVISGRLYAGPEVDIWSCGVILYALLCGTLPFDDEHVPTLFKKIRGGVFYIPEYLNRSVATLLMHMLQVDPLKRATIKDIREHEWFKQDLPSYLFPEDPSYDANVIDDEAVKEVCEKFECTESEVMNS", "settings": "read-out: Km for ATP; α2-KD phosphorylated using CaMKK2"}, "[2]": {"test_system": "LKB1 versus AMPK", "set-up": "method as in MRC Kinase Inhibitor Database", "settings": "ref MRC Kinase Inhibitor Database; cited from earlier work"}, "[3]": {"test_system": "ACC", "assay": "ACC phosphorylation in HEK293 cells (western blot)", "assay_type": "cell-based, human", "settings": "1 hr", "experimental": "(§1) Figure 1 SU6656 Activates AMPK but Not AMPK-Related Kinases (A) HEK293 cells were incubated with the indicated concentrations of SU6656 or berberine (300 μM) for 1 hr; total AMPK activity was assayed in immunoprecipitates (top; mean ± SEM, n = 4), and phosphorylation of AMPK (Thr172), ACC (Ser80), and Raptor (Ser792) analyzed by western blotting (bottom; n = 2). (B) HEK293 cells were incubated with 100 μM SU6656 (1 hr), AMPK complexes containing α1, α2, β1, and β2 immunoprecipitated using isoform-specific antibodies, and AMPK activity measured (mean ± SEM, n = 4). (C) HeLa cells stably expressing LKB1 ([Fogarty et al., 2010]) were incubated with 100 μM SU6656 for 1 hr, AMPK or individual ARKs immunoprecipitated, and kinase assays carried out (antibodies that distinguish MARK2/MARK3 were not available, so they were assayed together). Results are means ± SEM (n = 2). In all panels, asterisks indicate significant differences from controls without SU6656. *p < 0.05, **p < 0.01, ****p < 0.0001.\n(B) WT or RG cells were treated as in (A) and nucleotides extracted for analysis (mean ± SD, n = 3). […] (E) (See also Figure S2) Time courses of cellular oxygen uptake before and after addition of the indicated concentrations of sorafenib (SO, μM), SU6656 (100 μM) or phenformin (PHEN, 10 mM) (mean ± SEM, n = 4). (F) Effect of various concentrations of sorafenib or phenformin (10 mM) on activation (top, mean ± SEM, n = 3) or phosphorylation (bottom) of AMPK in cells expressing wild-type AMPK-γ2 (WT) or the R531G mutant AMPK-γ2 (RG). In all panels, asterisks show significant differences from DMSO controls (ns, not significant). […]\nCells were incubated for 60 min and AMPK activity measured; results in the top panel are means ± SEM (n = 8), with significant differences from the DMSO control indicated (ns, not significant). […]\nSDS-PAGE was performed using precast Bis-Tris 4–12% gradient polyacrylamide gels in the MOPS buffer system (ThermoFisher Scientific). […] Protein concentrations were determined by Coomassie Blue binding with bovine serum albumin as standard ([Bradford, 1976]). […]"}, "[4]": {"test_system": "HEK293 cells", "assay": "Cellular AMP:ATP and ADP:ATP ratios", "assay_type": "cell-based, human", "settings": "1 hr", "experimental": "(B) WT or RG cells were treated as in (A) and nucleotides extracted for analysis (mean ± SD, n = 3). […] (E) (See also Figure S2) Time courses of cellular oxygen uptake before and after addition of the indicated concentrations of sorafenib (SO, μM), SU6656 (100 μM) or phenformin (PHEN, 10 mM) (mean ± SEM, n = 4). (F) Effect of various concentrations of sorafenib or phenformin (10 mM) on activation (top, mean ± SEM, n = 3) or phosphorylation (bottom) of AMPK in cells expressing wild-type AMPK-γ2 (WT) or the R531G mutant AMPK-γ2 (RG). In all panels, asterisks show significant differences from DMSO controls (ns, not significant). In (B), daggers (†) show significant differences between results in WT and RG cells. *p < 0.05, **p < 0.01, ***p < 0.001, ****p < 0.0001, ^††††p < 0.0001.\nCells were incubated for 60 min and AMPK activity measured; results in the top panel are means ± SEM (n = 8), with significant differences from the DMSO control indicated (ns, not significant). The bottom panels show western blots from the same experiment (n = 2). (B) Analysis of AMP:ATP and ADP:ATP ratios from a parallel experiment to that in (A). Results are means ± SEM (n = 3), with significant differences from the DMSO control indicated. *p < 0.05, **p < 0.01, ****p < 0.0001.\nThe levels of AMP, ADP and ATP were measured using a TSQ Quantiva interfaced with Ultimate 3000 Liquid Chromatography system (ThermoScientific), equipped with a porous graphitic carbon column (HyperCarb 30x1mm ID 3 μm; Part No: C-35003-031030, Thermo-Scientific). Mobile phase buffer A consisted of 0.3% (v/v) formic acid adjusted to pH 9 with ammonia prior to a 1:10 dilution. Mobile phase buffer B was 80% (v/v) acetonitrile. The column was maintained at a controlled temperature of 30°C and was equilibrated with 10% buffer B for 5 minutes at a constant flow rate of 0.06 mL/min. Aliquots of 1 μL of each sample were loaded onto the column and compounds eluted with a linear gradient of 10%-60% buffer B over 9 min. Buffer B was then increased to 100% within 1 min, and the column washed for 5 min with 100% Buffer B. Eluents were sprayed into the TSQ Quantiva using Ion Max NG ion source with ion transfer tube temperature set to 350°C and vaporizer temperature 125°C. The TSQ Quantiva was run in negative mode with a spray voltage of 2600, sheath gas 40 and Aux gas 10. Levels of ATP, ADP and AMP were measured using multiple reactions monitoring mode (MRM) with optimised collision energies and radio frequencies previously determined by infusing pure compounds. Three transitions were used to monitor each of the three compounds, ATP (505.92>158.98, 505.92>408.12 and 505.92>426.12), ADP (426.98>158.98, 426.98>328.78 and 426.98>409.09) and AMP (345.96>134.20, 345.96>151.27 and 345.96>211.12)."}, "[5]": {"test_system": "AMPK", "assay": "AMPK activity and Thr172 phosphorylation in HEK293 cells", "assay_type": "cell-based, human", "settings": "1 hr", "experimental": "as §1, with “0.0001. […]” for “0.0001.”\nEndogenous AMPK was immunoprecipitated using the specified antibodies (for total AMPK, an equal mixture of anti-α1 and –α2 antibodies) and assayed at 200 μM ATP ([Hardie et al., 2000], [Towler et al., 2008]) using the AMARA peptide ([Dale et al., 1995]) as substrate, except for assays of allosteric activation by AMP (Figure 5A) where the SAMS peptide was used as substrate with 2 mM ATP ([Gowans et al., 2013]). The AMPK-related kinases SIK1, SIK2, SIK3, SNARK, MARK2/3 and MARK4 were immunoprecipitated and assayed as previously described ([Lizcano et al., 2004]) in lysates of Hela cells stably expressing LKB1 ([Fogarty et al., 2010]). LKB1 was assayed using the LKBtide peptide as substrate ([Sakamoto et al., 2004])."}, "[6]": {"test_system": "AMPK", "assay_type": "cell-based, mouse", "settings": "SYF cells, 1 hr", "experimental": "We next tested the effect of SU6656 in SYF cells, which are mouse embryo fibroblasts (MEFs) with null alleles for Src, Yes, and Fyn, the three Src kinases expressed in MEFs ([Klinghoffer et al., 1999]).\nTop: AMPK activity (mean ± SEM, n = 4); bottom: western blots showing phosphorylation of Thr172 on AMPK, and of ERK1/2, in cells treated with DMSO (control), SU6656 (100 μM), or PP2 (100 nM) (n = 2). (B) As (A), but in SYF cells. (C) HeLa cells were transfected with DNAs encoding GFP alone, or GFP fused to WT, Y261F/Y365F (FF), or Y36F/Y261F/Y365F (FFF) mutants of LKB1; cells were treated with increasing concentrations of SU6656 for 1 hr and AMPK activity determined (mean ± SEM, n = 4). See also Figure S1. (D) HEK293 cells were transfected with DNAs encoding FLAG-tagged AMPK-α2 with or without a Y436F mutation. Cells were incubated with DMSO (control), 100 μM SU6656, 10 mM phenformin, or 10 μM A23187 for 1 hr; AMPK complexes were immunoprecipitated using anti-FLAG antibody and assayed. The top panels show kinase activities (mean ± SD, n = 3); the bottom panels show blots from the same experiment (n = 2). In all panels, asterisks indicate significant differences from DMSO controls; in (D), there were no significant differences between the WT and Y463F mutant. **p < 0.01, ****p < 0.0001. […]"}, "[7]": {"test_system": "Erk1/Erk2", "assay": "Erk1/Erk2 phosphorylation in HEK293 cells (western blot)", "assay_type": "cell-based, human", "settings": "SU6656 100 μM, PP2 100 nM"}, "[8]": {"test_system": "Erk1/2", "assay": "Erk1/2 phosphorylation in SYF cells", "assay_type": "cell-based, mouse", "settings": "SU6656 100 μM, PP2 100 nM"}}, "note": "Like-named read-outs stand apart in the source and are kept apart here."}
{"smiles": "Nc1ncnc2c1ncn2[C@@H]1O[C@H](COP(=O)(O)OP(=O)(O)OP(=O)(O)O)[C@@H](O)[C@H]1O", "note": "[ATP]", "values": [{"measurement": "Km", "setting": "[1]", "value": "151 ± 7", "unit": "µM"}]}
{"smiles": "CC1(C)C(=O)N([C@H]2CCc3c(O)cccc32)c2nc(Nc3cccc(CN4CCCC4)c3)ncc21", "note": "[MRT199665]", "values": [{"measurement": "potency of LKB1 inhibition relative to AMPK inhibition", "setting": "[2]", "value": "inhibition of LKB1 was less potent than that of AMPK"}, {"measurement": "ACC phosphorylation", "setting": "[3]", "value": "inhibition of phosphorylation"}, {"measurement": "cellular AMP:ATP and ADP:ATP ratios", "setting": "[4]", "value": "not associated with changes in AMP:ATP or ADP:ATP ratios"}, {"measurement": "AMPK activity / Thr172 phosphorylation", "setting": "[5]", "value": "modest increase in AMPK activity and Thr172 phosphorylation"}]}
{"smiles": "CC(C)(C)n1nc(-c2ccc(Cl)cc2)c2c(N)ncnc21", "note": "[PP2]", "values": [{"measurement": "AMPK activity / Thr172 phosphorylation", "setting": "[6]", "value": "still had no effect on AMPK"}, {"measurement": "Erk1/Erk2 phosphorylation", "setting": "[7]", "value": "reduced phosphorylation of Erk1/Erk2"}, {"measurement": "AMPK activity / Thr172 phosphorylation", "setting": "[5]", "value": "had no effect on AMPK activity or Thr172 phosphorylation"}, {"measurement": "Erk1/2 phosphorylation", "setting": "[8]", "value": "had no effect on Erk1/2"}]}
{"smiles": "c1cc(-c2cnn3cc(-c4ccc(OCCN5CCCCC5)cc4)cnc23)ccn1", "note": "[compound C]", "values": [{"measurement": "potency of LKB1 inhibition relative to AMPK inhibition", "setting": "[2]", "value": "inhibit LKB1 with similar potency to AMPK"}]}
